These compounds were tested against T1, ΔF508-CFTR (Homo sapiens, UniProt P13569, DEL508-508) (assay: hBE equivalent current (Ieq) assay). Conditions: compound at 10 uM together with VX-809 at 1 uM, relative to VX-809 (1 uM); AUC of equivalent chloride current; primary hBE homozygous ΔF508; 24 h treatment.
T1 construct: Primary lung epithelial cells homozygous for the Cystic Fibrosis-causing ΔF508 mutation; endogenous in cells; host or cells: primary human lung (bronchial) epithelial cells homozygous for ΔF508, differentiated at air-liquid interface
Assay type: cell-based
Protocol: Primary lung epithelial cells homozygous for the Cystic Fibrosis-causing ΔF508 mutation were differentiated for a minimum of 4 weeks in an air-liquid interface on Costar 24 well HTS filter plates prior to the equivalent current (Ieq) measurements. Cells were apically mucus-washed for 30 minutes 24 h prior to treatment with compounds. The basolateral media was removed and replaced with media containing the compound of interest diluted to its final concentration from DMSO stocks. Treated cells were incubated at 37° C. and 5% CO2 for 24 hours. At the end of the treatment period, the media was changed to the Ieq experimental solution for 30 minutes before the experiment and plates are maintained in a CO2-free incubator during this period. The plates containing the cells were then placed in pre-warmed heating blocks at 36° C.±0.5 for 15 minutes before measurements are taken. The transepithelial voltage (VT) and conductance (GT) were measured using a custom 24 channel current clamp (TECC-24) with 24 well electrode manifold. The Ieq assay measurements were made following additions with standardized time periods: • 1. The baseline VT and GT values were measured for approximately 20 minutes. • 2. Benzamil was added to block ENaC for 15 minutes. • 3. Forskolin plus VX-770 were added to maximally activate ΔF508-CFTR for 27 minutes. • 4. Bumetanide was added to inhibit the NaK2Cl cotransporter and shut-off secretion of chloride.
The activity data captured was the area under the curve (AUC) for the traces of the equivalent chloride current. The AUC was collected from the time of the forskolin/VX-770 addition until the inhibition by bumetanide addition. Correction in response to compound treatment was scored as the increase in the AUC for compound-treated samples over that of vehicle-treated samples. The results are shown below in Table 2 (++indicates activity ≧25% run at 10 uM of VX-809 at 1 uM; +indicates activity 10 to <25% run at 10 uM of VX-809 at 1 uM; ** indicates activity ≧200% of VX-809 (1 uM) with compound at 10 uM and VX-809 at 1 uM; * indicates activity 100-200% of VX-809 (1 uM) with compound at 10 uM and VX-809 at 1 uM)

T1 sequence (P13569 with tags, fused parts or gaps DEL508-508): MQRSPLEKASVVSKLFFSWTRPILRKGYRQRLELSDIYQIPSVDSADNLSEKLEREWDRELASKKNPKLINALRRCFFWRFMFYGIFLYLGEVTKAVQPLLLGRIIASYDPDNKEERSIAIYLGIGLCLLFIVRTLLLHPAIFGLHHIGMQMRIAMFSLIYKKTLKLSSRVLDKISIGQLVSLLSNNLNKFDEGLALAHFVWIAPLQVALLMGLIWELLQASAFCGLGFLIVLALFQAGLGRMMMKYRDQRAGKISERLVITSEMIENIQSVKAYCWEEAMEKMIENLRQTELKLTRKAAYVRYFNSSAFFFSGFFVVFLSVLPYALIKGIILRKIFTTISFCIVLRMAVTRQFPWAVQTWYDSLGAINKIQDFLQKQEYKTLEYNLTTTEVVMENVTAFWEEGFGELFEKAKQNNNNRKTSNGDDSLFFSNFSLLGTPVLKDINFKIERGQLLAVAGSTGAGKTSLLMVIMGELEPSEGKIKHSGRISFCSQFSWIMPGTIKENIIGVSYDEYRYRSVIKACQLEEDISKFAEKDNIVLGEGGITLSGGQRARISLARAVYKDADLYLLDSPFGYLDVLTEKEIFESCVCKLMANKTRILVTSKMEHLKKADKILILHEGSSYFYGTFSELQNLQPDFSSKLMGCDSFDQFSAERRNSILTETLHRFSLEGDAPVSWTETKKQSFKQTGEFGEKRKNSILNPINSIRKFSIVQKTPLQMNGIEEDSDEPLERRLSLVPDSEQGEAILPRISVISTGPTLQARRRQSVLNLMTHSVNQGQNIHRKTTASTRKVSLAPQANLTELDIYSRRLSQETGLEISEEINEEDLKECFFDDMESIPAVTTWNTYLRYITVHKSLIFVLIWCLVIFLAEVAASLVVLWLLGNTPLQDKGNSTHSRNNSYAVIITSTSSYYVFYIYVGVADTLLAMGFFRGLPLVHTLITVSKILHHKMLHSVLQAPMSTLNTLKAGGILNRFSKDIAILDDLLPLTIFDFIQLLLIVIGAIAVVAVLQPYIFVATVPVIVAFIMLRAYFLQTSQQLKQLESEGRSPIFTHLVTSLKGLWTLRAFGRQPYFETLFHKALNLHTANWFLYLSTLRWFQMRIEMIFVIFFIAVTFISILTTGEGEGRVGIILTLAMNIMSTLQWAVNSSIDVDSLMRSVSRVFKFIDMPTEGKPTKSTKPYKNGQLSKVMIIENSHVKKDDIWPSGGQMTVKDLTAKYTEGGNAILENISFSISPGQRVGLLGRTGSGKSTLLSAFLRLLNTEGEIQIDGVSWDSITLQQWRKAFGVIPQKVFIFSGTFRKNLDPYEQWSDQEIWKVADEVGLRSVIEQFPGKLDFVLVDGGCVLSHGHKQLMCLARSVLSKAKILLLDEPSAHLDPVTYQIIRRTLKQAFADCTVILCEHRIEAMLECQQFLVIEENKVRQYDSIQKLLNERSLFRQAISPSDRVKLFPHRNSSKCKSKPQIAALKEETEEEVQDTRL

**Q.** `CC(C)(O)c1nnc(CCNC(=O)c2cc(-c3ccccc3)on2)s1` [Compound A9, N-(2-(5-(2-hydroxypropan-2-yl)-1,3,4-thiadiazol-2-yl)ethyl)-5-phenylisoxazole-3-carboxamide] was tested. Which “Ieq Activity” value did it give?
**A.** ** (** indicates activity ≧200% of VX-809 (1 uM) with compound at 10 uM and VX-809 at 1 uM)

**Q.** Which “Ieq Activity” value does the source give for `O=C(NCCc1nnc(COC(F)(F)F)s1)c1cc(-c2ccccc2)on1` [Compound A16, 5-phenyl-N-(2-(5-((trifluoromethoxy)methyl)-1,3,4-thiadiazol-2-yl)ethyl)isoxazole-3-carboxamide] here?
**A.** * (* indicates activity 100-200% of VX-809 (1 uM) with compound at 10 uM and VX-809 at 1 uM)

**Q.** Which “Ieq Activity” value does the source give for `C[C@@H](O)c1nnc(CCNC(=O)c2cc(-c3ccccc3)on2)s1` [Compound A13, (R)-N-(2-(5-(1-hydroxyethyl)-1,3,4-thiadiazol-2-yl)ethyl)-5-phenylisoxazole-3-carboxamide] here?
**A.** ** (** indicates activity ≧200% of VX-809 (1 uM) with compound at 10 uM and VX-809 at 1 uM)

**Q.** With `CC(C)(O)c1nnc(CCNC(=O)c2cc(-c3ccccc3)on2)o1` [Compound A10, N-(2-(5-(2-hydroxypropan-2-yl)-1,3,4-oxadiazol-2-yl)ethyl)-5-phenylisoxazole-3-carboxamide] as the compound, how does the “Ieq Activity” value read?
**A.** ** (** indicates activity ≧200% of VX-809 (1 uM) with compound at 10 uM and VX-809 at 1 uM)

**Q.** With `O=C(NCCc1nnc(CO)s1)c1noc(-c2ccccc2)c1F` [Compound A11, 4-fluoro-N-(2-(5-(hydroxymethyl)-1,3,4-thiadiazol-2-yl)ethyl)-5-phenylisoxazole-3-carboxamide] as the compound, how does the “Ieq Activity” value read?
**A.** * (* indicates activity 100-200% of VX-809 (1 uM) with compound at 10 uM and VX-809 at 1 uM)

**Q.** `CO[C@H](C)c1nnc(CCNC(=O)c2cc(-c3ccccc3)on2)s1` [Compound A25-b, (R)-N-(2-(5-(1-methoxyethyl)-1,3,4-thiadiazol-2-yl)ethyl)-5-phenylisoxazole-3-carboxamide] was tested. Which “Ieq Activity” value did it give?
**A.** ** (** indicates activity ≧200% of VX-809 (1 uM) with compound at 10 uM and VX-809 at 1 uM)

**Q.** How did the “Ieq Activity” value turn out when `O=C(NCCc1nnc(CBr)s1)c1cc(-c2ccccc2)on1` [Compound A3, N-(2-(5-(bromomethyl)-1,3,4-thiadiazol-2-yl)ethyl)-5-phenylisoxazole-3-carboxamide] was run?
**A.** ** (** indicates activity ≧200% of VX-809 (1 uM) with compound at 10 uM and VX-809 at 1 uM)
